The results in this text go back to patent publication US20190240296A1, “TREATMENT OF DISEASES MEDIATED BY VASCULAR HYPERPERMEABILITY” (AMPIO PHARMACEUTICALS, INC., priority 2016, published 2019).

The subject of this test is acetylated α-tubulin in HREC. In words: Immunofluorescence staining for acetylated α-tubulin in HREC. In kind it is cell-based, human. As to conditions: 3 hours. The method, then:
HREC were grown on glass bottom 24-well tissue culture plates (Cellvis, Mountain View, Calif.) coated with 2% gelatin in EGM-2. The medium was then exchanged with a combination of 500 μL saline, 2× working dilutions of compounds to be tested prepared in saline, or LMWFHSA together with 500 μl EGM-2 and incubated for the indicated times. Following treatment, the cells were fixed using 10% neutral buffered formalin for 10 minutes and permeabilized with 0.1% Triton X-100 in PBS for 5 minutes. 4% goat serum (ThermoFisher Scientific) prepared in PBS was used to block the cells for 1 hour then the cells were exposed to anti-acetylated α-tubulin clone 6-11B-1 antibody (1:1000; Santa Cruz Biotechnology, Santa Cruz, Calif.) in blocking solution overnight at 4° C. Alexa fluor 488 conjugated anti-mouse IgG (1:1000; Invitrogen, Carlsbad, Calif.) was then added for 1 hour followed by DAPI counter staining (300 nM in PBS; ThermoFisher Scientific) for 5 minutes. Randomly selected frames were photographed on an inverted microscope (Zyla sCMOS camera; Andor, South Windsor, Conn. and eclipse Ti; Nikon, Melville, N.Y.) and fluorescent intensity measured using ImageJ software (http://imagej.nih.gov/ij) (Schneider C A, et al. NIH Image to ImageJ: 25 years of image analysis. Nature methods 2012; 9:671-675). For normalization, the number of DAPI staining nuclei was determined for each frame and data presented as median FU/DAPI objects.

Turning to `C[S+]([O-])c1ccc(-c2nc(-c3ccncc3)c(-c3ccc(F)cc3)[nH]2)cc1` (stereo not drawn) [SB203580], where the note is “10 μM SB203580 with LMWFHSA, 95% CI 63-51”, the “increase of α-tubulin acetylation versus saline-DMSO controls” value came out at 57%. Further, the “increase of α-tubulin acetylation versus LMWF5A-DMSO treated cells” value (10 μM SB203580 with LMWFHSA, 95% CI 236-208) is on record as 222%.
In the case of `O=c1cc(N2CCOCC2)oc2c(-c3ccccc3)cccc12` [LY294002], for the setting “Homo sapiens, 10 μM LY294002 with LMWFHSA, four experiments in triplicate, 95% CI 29-19, read-out: reduction of LMWFHSA-induced α-tubulin acetylation (percent inhibition)”, the inhibition – broadly, the percentage by which the read-out fell short of the control – at 10 µM was 24%.
